Measured values published in patent US20160291027A1, “METHODS FOR […] ABILITY OF A Z[…] COMPOUND TO TREAT CANCER” (Eisai R&D Management Co., Ltd., priority 2007, published 2016).

Experiments:
[1] = tested on: IL-6 secretion by LOX human melanoma cells; experiment: IL-6 secretion by LOX melanoma cells (ELISA); format: cell-based; details: 24 hours
Method: Compound 106 (5.0 mg) was weighed and dissolved in 100% anhydrous DMSO (dimethyl sulfoxide, Sigma-Aldrich®, St. Louis, Mo.) to produce a 10 mmol/L stock solution of 3.89 mg/mL. Aliquots of the 10 mmol/L stock solution were stored at −80° C. Then, on each day of an experiment, an aliquot of the stock solution was thawed and diluted 1:10 by adding RPMI-1640 culture medium to obtain a 1 mmol/L solution. Four serial 1:10 dilutions were made from 1 mmol/L working solution by adding 10% DMSO in RPMI-1640 culture medium to obtain 4 additional working solutions. Each of these working stock solutions was further diluted with culture media to obtain diluted working solutions ranging from 1 nmol/L to 10,000 nmol/L. Five mL of each of these diluted working solutions was added to each dish.
LOX human melanoma cells were originally obtained from the DCTD Tumor Repository (Frederick, Md.). The cells were grown in monolayer cultures in RPMI-1640 growth media containing 10% fetal bovine serum (FBS) at 37° C. in a 5% CO2 humidified incubator.
LOX human melanoma cells were plated at 1×10^6 cells into 100 mm dishes. After 48 hours, cells were washed three times with phosphate buffered saline (PBS) and were cultured with RPMI-1640 medium containing 0.1% FBS for another 24 hours. After removing the cell culture medium, fresh RPMI-1640 medium containing Compound 106 (1, 10, 100, 1000, or 10,000 nmol/L) was added to each culture dish and incubated for 24 hours (see Table 5). The control received 0.1% DMSO in RPMI-1640 culture medium alone to measure spontaneous secretion of IL-6 and IL-8. Three separate experiments were performed in duplicate to calculate the mean±SEM.
After a 24 hour incubation with Compound 106 or 0.1% DMSO, 5 mL of cell culture supernatant was collected. Any particulate material was removed by centrifugation. All samples were stored in the −80° C. freezer until analysis. Human IL-6 or IL-8 was determined using an ELISA kit (Human IL-8 ELISA Set, Catalog No. 555244, BD Biosciences, San Diego, Calif. and Human IL-6 ELISA Set, Catalog No. 555220, BD Biosciences, San Diego, Calif.) with the assay procedure provided by the kits. Absorbance was read on a VERSAMAX™ (Molecular Devices, now part of MDS Analytical Technologies, Sunnyvale Calif.).
After removing the cell culture supernatant, 1.0 mL of trypsin was added to the cells for 3 minutes, and then 4 mL of media containing 10% FBS was added for cell counting. Cells were counted using a hematocytometer (Bright Line Counting Chamber, Hausser Scientific, Horsham, Pa.) with a depth of 0.1 mm. The total number of cells was calculated as follows:
Total number of cells in 5 mL=C×10^4/mL×5 mL(C: actual cell count in 1 mm^2)
The level of IL-6 or IL-8 was determined as ng/1×10^6 cells. Inhibition of IL-6 or IL-8 secretion by Compound 106 was expressed as percent of control using the formula below:
Percent of control=(value of treatment−mean value of blank)/(value of control−mean value of blank)×100
The software, Graphpad Prism® (ver. 4, San Diego, Calif.) was used for calculation of mean IC50 values.

[2] = tested on: SF-295; experiment: CellTiter-Glo cell growth assay; format: cell-based, human; details: SF-295, BRAF wild-type glioblastoma, elevated pAKT; 10 μmol/L to 0.0003 μmol/L
Method: In order to determine whether Compound 106 resistance is associated with constitutive AKT phosphorylation as a result of activation of the PI3K signaling pathway, a panel of 10 BRAF mutated melanoma cell lines and a BRAF wild-type glioblastoma cancer cell line, SF-295, were tested using different concentrations of Compound 106 ranging from 10 μmol/L to 0.0003 μmol/L.
All assays were performed in a 96 well format. For these cell lines, protein lysates were collected in a separate experiment, which allowed for the evaluation of the constitutive level of AKT phosphorylation and correlation between the level of phosphorylated AKT (pAKT) and Compound 106 sensitivity. Cell growth was assessed using CellTiter-Glo® Luminescent Cell Viability Assay (Promega). Phosphorylated AKT protein was analyzed by Western blotting, with total AKT being used as a loading control.

CCNc1cc(O)c2c(c1)/C=C/C[C@H](O)[C@H](O)C(=O)/C=C\[C@@H](C)[C@H](C)OC2=O [Compound 106]
IL-6 (ng/million cells) Mean ([1]; 1 nmol/L): 9.9 ng/million cells
IL-6 (pg/million cells) Experiment 1 ([1]; 1 nmol/L): 5890 pg/million cells
IL-6 (pg/million cells) Experiment 2 ([1]; 1 nmol/L): 13741 pg/million cells
IL-6 (pg/million cells) Experiment 3 ([1]; 1 nmol/L): 10140 pg/million cells
Protein level of IL-6, Percent (%) of control Experiment 1 ([1]; 1 nmol/L): 46.1%
Protein level of IL-6, Percent (%) of control Experiment 2 ([1]; 1 nmol/L): 53.6%
Protein level of IL-6, Percent (%) of control Experiment 3 ([1]; 1 nmol/L): 115.0%
IL-6 (ng/million cells) Mean ([1]; 10 nmol/L): 8.7 ng/million cells
IL-6 (pg/million cells) Experiment 1 ([1]; 10 nmol/L): 3253 pg/million cells
IL-6 (pg/million cells) Experiment 2 ([1]; 10 nmol/L): 12105 pg/million cells
IL-6 (pg/million cells) Experiment 3 ([1]; 10 nmol/L): 10745 pg/million cells
Protein level of IL-6, Percent (%) of control Experiment 1 ([1]; 10 nmol/L): 21.5%
Protein level of IL-6, Percent (%) of control Experiment 2 ([1]; 10 nmol/L): 47.1%
Protein level of IL-6, Percent (%) of control Experiment 3 ([1]; 10 nmol/L): 121.3%
IL-6 (ng/million cells) Mean ([1]; 100 nmol/L): 0.5 ng/million cells
IL-6 (pg/million cells) Experiment 1 ([1]; 100 nmol/L): 347 pg/million cells
IL-6 (pg/million cells) Experiment 2 ([1]; 100 nmol/L): 643 pg/million cells
IL-6 (pg/million cells) Experiment 3 ([1]; 100 nmol/L): 485 pg/million cells
Protein level of IL-6, Percent (%) of control Experiment 1 ([1]; 100 nmol/L): 2.9%
Protein level of IL-6, Percent (%) of control Experiment 2 ([1]; 100 nmol/L): 2.5%
Protein level of IL-6, Percent (%) of control Experiment 3 ([1]; 100 nmol/L): 5.5%
IL-6 (ng/million cells) Mean ([1]; 1,000 nmol/L): 0.6 ng/million cells
IL-6 (pg/million cells) Experiment 1 ([1]; 1,000 nmol/L): 547 pg/million cells
IL-6 (pg/million cells) Experiment 2 ([1]; 1,000 nmol/L): 986 pg/million cells
IL-6 (pg/million cells) Experiment 3 ([1]; 1,000 nmol/L): 257 pg/million cells
Protein level of IL-6, Percent (%) of control Experiment 1 ([1]; 1,000 nmol/L): 4.6%
Protein level of IL-6, Percent (%) of control Experiment 2 ([1]; 1,000 nmol/L): 3.8%
Protein level of IL-6, Percent (%) of control Experiment 3 ([1]; 1,000 nmol/L): 2.9%
IL-6 (ng/million cells) Mean ([1]; 10,000 nmol/L): 0.2 ng/million cells
IL-6 (pg/million cells) Experiment 1 ([1]; 10,000 nmol/L): 165 pg/million cells
IL-6 (pg/million cells) Experiment 2 ([1]; 10,000 nmol/L): 337 pg/million cells
IL-6 (pg/million cells) Experiment 3 ([1]; 10,000 nmol/L): 132 pg/million cells
Protein level of IL-6, Percent (%) of control Experiment 1 ([1]; 10,000 nmol/L): 1.3%
Protein level of IL-6, Percent (%) of control Experiment 2 ([1]; 10,000 nmol/L): 1.3%
Protein level of IL-6, Percent (%) of control Experiment 3 ([1]; 10,000 nmol/L): 1.6%
activity at 0.001 µM ([1]; Homo sapiens, LOX, 1 nmol/L, read-out: Protein level of IL-6, Mean % of control): 72.2%
activity at 0.01 µM ([1]; Homo sapiens, LOX, 10 nmol/L, read-out: Protein level of IL-6, Mean % of control): 65%
activity at 0.1 µM ([1]; Homo sapiens, LOX, 100 nmol/L, read-out: Protein level of IL-6, Mean % of control): 3.6%
activity at 1 µM ([1]; Homo sapiens, LOX, 1,000 nmol/L, read-out: Protein level of IL-6, Mean % of control): 3.8%
activity at 10 µM ([1]; Homo sapiens, LOX, 10,000 nmol/L, read-out: Protein level of IL-6, Mean % of control): 1.4%
IC50 ([1]; Homo sapiens, LOX melanoma cell line, read-out: mean calculated IC50, IL-6 protein level): 21.8 nM
Sensitivity of cell line [2]: resistant
